Results on 15 compounds are retold here after ChEMBL document CHEMBL5252675, “Discovery of new 5-substituted-indole-2-carboxamides as dual epidermal growth factor receptor (EGFR)/cyclin dependent kinase-2 (CDK2) inhibitors with potent antiproliferative action” (RSC Med Chem, 2023).

Series [1] relates to HT-29. Put plainly: Antiproliferative activity against human HT-29 cells by MTT assay. Type of series: functional, cell-based.
For series [2], the system named is A549. Put plainly: Antiproliferative activity against human A549 cells by MTT assay. Type of series: functional, cell-based. On the technique in general: Tetrazolium dyes change colour on reduction, which living cells bring about.
Series [3] has as its system MCF-10A. Kind of series: Cytotoxicity against human MCF-10A cells assessed as reduction in cell viability at 50 uM incubated for 4 days by MTT assay. Type of series: toxicity, cell-based. As to conditions: 96 h, time 4 day.
Series [4] deals with PANC-1. Kind of series: Antiproliferative activity against human PANC-1 cells by MTT assay. Type of series: functional, cell-based.
Series [5] deals with MCF7. Kind of series: Antiproliferative activity against human MCF7 cells by MTT assay. It counts as functional, cell-based.
Series [6] has as its target Epidermal growth factor receptor (Homo sapiens, UniProt P00533). Kind of series: Inhibition of EGFR (unknown origin).
The target in series [7] is Cyclin-dependent kinase 2 (Homo sapiens, UniProt P24941).
Description: Inhibition of CDK2 (unknown origin)

Chain of Epidermal growth factor receptor (P00533 whole entry): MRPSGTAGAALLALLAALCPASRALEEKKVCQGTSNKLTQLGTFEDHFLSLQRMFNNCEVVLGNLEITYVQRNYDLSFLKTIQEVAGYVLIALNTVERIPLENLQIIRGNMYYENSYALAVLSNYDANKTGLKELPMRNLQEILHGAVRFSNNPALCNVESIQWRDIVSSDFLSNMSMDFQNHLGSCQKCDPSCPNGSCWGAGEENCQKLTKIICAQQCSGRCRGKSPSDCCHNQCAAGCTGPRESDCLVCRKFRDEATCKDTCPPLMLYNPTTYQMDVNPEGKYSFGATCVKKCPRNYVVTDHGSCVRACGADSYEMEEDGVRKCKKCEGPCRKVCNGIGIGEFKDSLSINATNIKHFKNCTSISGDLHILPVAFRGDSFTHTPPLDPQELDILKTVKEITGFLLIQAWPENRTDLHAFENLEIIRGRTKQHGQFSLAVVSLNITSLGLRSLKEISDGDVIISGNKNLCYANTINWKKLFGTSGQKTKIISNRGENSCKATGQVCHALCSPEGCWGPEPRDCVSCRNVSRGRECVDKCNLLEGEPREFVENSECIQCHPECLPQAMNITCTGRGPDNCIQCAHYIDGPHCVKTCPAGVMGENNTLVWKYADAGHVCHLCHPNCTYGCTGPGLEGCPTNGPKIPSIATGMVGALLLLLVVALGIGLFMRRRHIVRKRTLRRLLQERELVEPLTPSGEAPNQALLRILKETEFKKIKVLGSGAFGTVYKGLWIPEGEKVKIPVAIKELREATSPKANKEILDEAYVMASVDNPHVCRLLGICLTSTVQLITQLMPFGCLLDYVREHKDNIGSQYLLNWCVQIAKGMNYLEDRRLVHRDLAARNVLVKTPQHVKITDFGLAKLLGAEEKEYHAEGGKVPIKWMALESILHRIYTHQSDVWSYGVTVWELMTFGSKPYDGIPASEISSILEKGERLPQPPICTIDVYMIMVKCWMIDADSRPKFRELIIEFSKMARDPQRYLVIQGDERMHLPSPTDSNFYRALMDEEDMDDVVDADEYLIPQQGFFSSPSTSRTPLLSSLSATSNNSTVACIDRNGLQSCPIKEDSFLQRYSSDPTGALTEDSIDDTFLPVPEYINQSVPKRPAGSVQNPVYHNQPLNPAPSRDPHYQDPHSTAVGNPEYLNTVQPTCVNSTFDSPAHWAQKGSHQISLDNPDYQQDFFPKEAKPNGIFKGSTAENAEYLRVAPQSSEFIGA

Broadly, the IC50 is the concentration that inhibits the measured activity by half. Regarding `CCc1c(C(=O)NCCc2ccc(N(C)C)cc2)[nH]c2ccc(Br)cc12`, the IC50 in series [1] is 120 nM; in series [2], 108 nM; in series [4], 115 nM; in series [5], 112 nM. In addition, in series [3], the Activity is 91%.
On the same counts, the results for `CCc1c(C(=O)NCCc2ccccc2)[nH]c2ccc(Br)cc12` are 148 nM, 138 nM, 145 nM, 142 nM and 89%.
In the case of `Cc1c(C(=O)NCCc2ccc(F)cc2)[nH]c2cc(F)ccc12`, the IC50 in series [6] was found to be 98 nM; in series [7] it was 34 nM.
For `CCc1c(C(=O)NCCc2ccc(N3CCOCC3)cc2)[nH]c2ccc(C)cc12`, the IC50 in series [1] was found to be 37 nM; in series [2] it was 34 nM; in series [4] it was 35 nM; in series [6], 85 nM; in series [7] it was 16 nM; in series [5], 42 nM. Further, the Activity in series [3] was found to be 89%.
Regarding `CCc1c(C(=O)N2CCN(c3ccccc3)CC2)[nH]c2ccc(Br)cc12`, the IC50 in series [1] worked out at 202 nM; in series [2], 185 nM; in series [4] it was 195 nM; in series [5] it was 190 nM. Moreover, in series [3], the Activity amounted to 85%.
On the same counts, the results for `CCc1c(C(=O)NCCc2ccc(N3CCOCC3)cc2)[nH]c2ccc(Br)cc12` are 79 nM, 67 nM, 75 nM, 74 nM and 91%.
The like results for `CCc1c(C(=O)NCCc2ccc(N3CCCCC3)cc2)[nH]c2ccc(C(F)(F)F)cc12` were, in that order, 87 nM, 77 nM, 85 nM, 82 nM and 85%.
In the case of `CCc1c(C(=O)NCCc2ccc(N3CCCCC3)cc2)[nH]c2ccc(C)cc12`, the IC50 in series [1] stood at 57 nM; in series [2] it was 51 nM; in series [4], 59 nM; in series [6] it was 117 nM; in series [7], 33 nM; in series [5] it was 54 nM. In addition, in series [3], the Activity turned out to be 89%.
Turning to `CCc1c(C(=O)N2CCN(c3ccccc3)CC2)[nH]c2ccc(C)cc12`, the IC50 in series [1] was 140 nM; in series [2], 125 nM; in series [4] it was 137 nM; in series [5] it was 132 nM. Also, the Activity in series [3] worked out at 90%.
For the compound `CCc1c(C(=O)NCCc2ccc(N3CCOCC3)cc2)[nH]c2ccc(C(F)(F)F)cc12`, the IC50 is 55 nM in series [1]; 43 nM in series [2]; 52 nM in series [4]; 94 nM in series [6]; 24 nM in series [7]; 45 nM in series [5]. Further, in series [3], the Activity is 87%.
Turning to `CCc1c(C(=O)NCCc2ccccc2)[nH]c2ccc(C)cc12`, the IC50 amounted to 75 nM in series [1]; 64 nM in series [2]; 72 nM in series [4]; 134 nM in series [6]; 46 nM in series [7]; 69 nM in series [5]. The Activity in series [3] is listed as 87%.
With `CCc1c(C(=O)N2CCN(c3ccccc3)CC2)[nH]c2ccc(C(F)(F)F)cc12`, the IC50 in series [1] turned out to be 130 nM; in series [2] it was 117 nM; in series [4], 130 nM; in series [5] it was 123 nM. In series [3], the Activity was 91%.
Take `CCc1c(C(=O)NCCc2ccc(N3CCCCC3)cc2)[nH]c2ccc(Br)cc12`: the IC50 in series [1] was 97 nM; in series [2], 89 nM; in series [4], 97 nM; in series [5] it was 93 nM. For the same compound, the Activity in series [3] stood at 90%.
`CCc1c(C(=O)NCCc2ccccc2)[nH]c2ccc(C(F)(F)F)cc12`: the IC50 stood at 170 nM in series [1], 157 nM in series [2], 165 nM in series [4] and 162 nM in series [5]. In addition, the Activity in series [3] amounted to 88%.
On the same counts, the results for `CCc1c(C(=O)NCCc2ccc(N3CCCC3C)cc2)[nH]c2ccc(Br)cc12` (stereo not given) are 197 nM, 172 nM, 190 nM, 185 nM and 86%.
